This note sets out measurements from patent US20210172934A1, “SINGLE CELL CLONING APPROACHES FOR BIOLOGICAL STUDIES” (priority 2018, published 2021).

Experiment [1] relates to MT-2 WT and KO cell lines. Description: In vitro sensitivity of MT-2 WT and KO cell lines to chemotherapy. In kind it is cell-based, murine. As to the method: 4,000 […] cells were plated in quadruplicates in 96-well plates containing growth media. The next day, vehicle (PBS) or chemotherapy (doxorubicin: 0.33 nM-2.2 ∝M; paclitaxel: 14 μM-160 μM) was added to the plate and incubated for 72 hours. ATP levels were quantified as a surrogate measure for viability (CellTiter-Glo, Promega) using a luminometer (Perkin-Elmer).

Experiment [2] deals with Met-1 cells. Description: In vitro chemosensitivity study (CellTiter-Glo, ATP as surrogate for viability). The conditions noted are these: 72 hours incubation; ATP levels (CellTiter-Glo). In kind it is cell-based, murine. On the procedure:
4,000 Met-1 cells were plated in quadruplicates in 96-well plates containing growth media. The next day, vehicle (PBS) or chemotherapy (doxorubicin: 0.33 nM-2.2 ∝M; paclitaxel: 14 μM-160 μM) was added to the plate and incubated for 72 hours. ATP levels were quantified as a surrogate measure for viability (CellTiter-Glo, Promega) using a luminometer (Perkin-Elmer).
We next tested responsiveness of Met-1 mammary carcinoma to combination doxorubicin (A), cyclophosphamide (C), and paclitaxel (T) chemotherapy, AC-T, a standard of care chemotherapy regimen for breast cancer patients with ER-negative disease. We first tested the sensitivity of Met-1 cells to doxorubicin and paclitaxel in vitro and performed an initial in vivo experiment to identify a therapeutically relevant, well-tolerated combinatorial dose.
In general terms: Cellular ATP, detected with luciferase, serves as a proxy for viable cell number.

For the compound `COc1cccc2c1C(=O)c1c(O)c3c(c(O)c1C2=O)C[C@@](O)(C(=O)CO)C[C@@H]3O[C@H]1C[C@H](N)[C@H](O)[C@H](C)O1` [doxorubicin, Doxorubicin], the “(enhanced) sensitivity of MT-2 KO versus WT in vitro” value in experiment [1] was “not apparent”. Moreover, in experiment [2], the “viability of Met-1 cells in vitro” value was “significantly decreased viability”.
Consider `CC(=O)O[C@H]1C(=O)[C@@]2(C)[C@H]([C@H](OC(=O)c3ccccc3)[C@]3(O)C[C@H](OC(=O)[C@H](O)[C@@H](NC(=O)c4ccccc4)c4ccccc4)C(C)=C1C3(C)C)[C@]1(OC(C)=O)CO[C@@H]1C[C@@H]2O` [paclitaxel], for which the “(enhanced) sensitivity of MT-2 KO versus WT in vitro” value in experiment [1] is recorded as “not apparent”. The “viability of Met-1 cells in vitro” value in experiment [2] is on record as “significantly decreased viability”.
